Legend:
[1] = molecular target: T1, (1,3)-β-D-glucan synthase (GS), catalytic subunit Fks1p (Saccharomyces cerevisiae, UniProt P38631); assay: GS activity assay; format: biochemical
[2] = molecular target: T1, (1,3)-β-D-glucan synthase (GS), catalytic subunit Fks1p; assay: GS activity assay with […] UDP-Glc; format: biochemical

T1 sequence (P38631 whole entry): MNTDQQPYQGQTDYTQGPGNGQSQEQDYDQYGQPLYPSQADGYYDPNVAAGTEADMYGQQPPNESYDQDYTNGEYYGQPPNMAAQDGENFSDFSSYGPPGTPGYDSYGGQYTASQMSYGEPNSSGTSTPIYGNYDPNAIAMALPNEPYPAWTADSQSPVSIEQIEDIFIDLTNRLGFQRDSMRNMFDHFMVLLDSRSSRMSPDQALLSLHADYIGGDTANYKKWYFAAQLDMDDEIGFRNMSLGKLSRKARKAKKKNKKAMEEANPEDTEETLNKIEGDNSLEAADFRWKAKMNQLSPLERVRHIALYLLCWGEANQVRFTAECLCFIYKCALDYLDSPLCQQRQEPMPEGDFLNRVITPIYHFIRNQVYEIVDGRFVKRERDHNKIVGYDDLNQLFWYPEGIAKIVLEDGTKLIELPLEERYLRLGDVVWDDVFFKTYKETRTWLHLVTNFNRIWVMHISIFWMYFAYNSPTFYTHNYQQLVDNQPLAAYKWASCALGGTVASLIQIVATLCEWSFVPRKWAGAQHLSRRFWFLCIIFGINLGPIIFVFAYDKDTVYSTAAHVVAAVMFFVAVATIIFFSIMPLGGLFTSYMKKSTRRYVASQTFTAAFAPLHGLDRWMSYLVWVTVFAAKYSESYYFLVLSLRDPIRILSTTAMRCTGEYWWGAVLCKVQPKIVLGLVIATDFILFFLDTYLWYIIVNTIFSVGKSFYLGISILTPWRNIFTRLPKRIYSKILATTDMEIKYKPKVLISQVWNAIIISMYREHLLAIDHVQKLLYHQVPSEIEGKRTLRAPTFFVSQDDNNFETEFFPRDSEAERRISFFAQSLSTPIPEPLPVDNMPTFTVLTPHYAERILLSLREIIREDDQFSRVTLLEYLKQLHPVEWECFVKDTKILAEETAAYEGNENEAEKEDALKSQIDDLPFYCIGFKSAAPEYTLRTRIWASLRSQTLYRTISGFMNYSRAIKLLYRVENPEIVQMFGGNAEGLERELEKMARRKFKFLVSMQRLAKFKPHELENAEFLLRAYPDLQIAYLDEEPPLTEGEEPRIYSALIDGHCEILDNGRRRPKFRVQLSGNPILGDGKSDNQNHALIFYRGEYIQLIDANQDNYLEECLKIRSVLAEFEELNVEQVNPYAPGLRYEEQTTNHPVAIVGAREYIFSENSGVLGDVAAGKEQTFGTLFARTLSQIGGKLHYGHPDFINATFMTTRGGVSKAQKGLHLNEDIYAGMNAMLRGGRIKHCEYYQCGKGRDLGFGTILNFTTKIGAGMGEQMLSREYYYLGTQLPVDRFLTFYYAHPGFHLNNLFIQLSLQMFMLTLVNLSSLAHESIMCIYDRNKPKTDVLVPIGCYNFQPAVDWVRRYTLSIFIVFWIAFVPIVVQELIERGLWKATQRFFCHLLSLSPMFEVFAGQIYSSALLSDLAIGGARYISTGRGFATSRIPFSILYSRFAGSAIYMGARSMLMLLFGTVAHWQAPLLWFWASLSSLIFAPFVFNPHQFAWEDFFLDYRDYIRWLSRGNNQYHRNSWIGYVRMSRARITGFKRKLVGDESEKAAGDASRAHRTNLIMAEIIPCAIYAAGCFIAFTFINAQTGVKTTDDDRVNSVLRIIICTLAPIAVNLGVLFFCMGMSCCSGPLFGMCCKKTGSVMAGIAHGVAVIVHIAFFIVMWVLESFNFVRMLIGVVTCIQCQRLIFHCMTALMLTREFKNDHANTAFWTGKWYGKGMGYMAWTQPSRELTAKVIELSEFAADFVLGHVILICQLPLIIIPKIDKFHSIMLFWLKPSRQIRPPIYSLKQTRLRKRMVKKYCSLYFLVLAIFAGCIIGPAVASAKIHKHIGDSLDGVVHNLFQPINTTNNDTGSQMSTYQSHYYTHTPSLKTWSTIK
T1 sequence (P06780 2-206, further chain): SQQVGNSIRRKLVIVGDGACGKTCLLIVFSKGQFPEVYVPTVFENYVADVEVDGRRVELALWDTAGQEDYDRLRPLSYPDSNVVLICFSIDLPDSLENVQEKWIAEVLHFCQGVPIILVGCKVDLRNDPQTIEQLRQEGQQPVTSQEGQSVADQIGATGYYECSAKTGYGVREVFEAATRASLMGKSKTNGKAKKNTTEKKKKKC

Row | IC50 [2] [µM] | Compound | IC50 [1] [µM]
1 | – | CC[C@H](C)C[C@H](C)CCCCCCCCC(=O)N[C@H]1C[C@@H](O)[C@@H](NCCN)NC(=O)[C@@H]2[C@@H](O)CCN2C(=O)[C@H]([C@H](O)CCN)NC(=O)[C@H]([C@H](O)[C@@H](O)c2ccc(O)cc2)NC(=O)[C@@H]2C[C@@H](O)CN2C(=O)[C@H]([C@@H](C)O)NC1=O [CFN, caspofungin] | 0.238
2 | 5300 ± 1000 | O=c1ccn([C@@H]2O[C@H](COP(=O)(O)OP(=O)(O)O[C@H]3O[C@H](CO)[C@@H](O)[C@H](F)[C@H]3O)[C@@H](O)[C@H]2O)c(=O)[nH]1 [UDP-3’-F-Glc] | –
3 | 2400 ± 200 | O=c1ccn([C@@H]2O[C@H](COP(=O)(O)OP(=O)(O)O[C@H]3O[C@H](CO)[C@@H](O)C[C@H]3O)[C@@H](O)[C@H]2O)c(=O)[nH]1 [UDP-3’-dGlc] | –

Reference: publication PMC7015794 (Biochemistry, 2020)
